Test results: US20220305003A1, “METHODS OF TREATING CANCER WITH AN INHIBITOR OF ZNF827” (CHILDREN'S MEDICAL RESEARCH INSTITUTE, priority 2019, published 2022)

How the values were obtained:
Type in all cases: cell-based
[1] = test system: HT1080 FUCCI cells; assay: Live cell imaging of cell cycle in FUCCI cells
Method: To further characterise the impact of ZNF827 on the cell cycle, live cell imaging was conducted with HT1080 FUCCI cells, to monitor cell progression through the cell cycle in real-time following ZNF827 depletion. The FUCCI (fluorescence ubiquitination cell cycle indicator) cells were stably transfected with fluorescence-labelled cell cycle-regulated proteins, geminin (labelled by GFP) and Cdt1 (labelled by RFP), which are only expressed during specific phases of the cell cycle (FIG. 9c). Their expressions are used to classify cells by cell cycle phase in a live cell setting.
HT1080 FUCCI cells were seeded in glass bottom 12-well plates (MakTek Corporation) the day before imaging at 30% confluency, to ensure that cells were actively cycling for the duration of the experiment. Media was replaced with phenol red free DMEM (Gibco) supplemented with 10% FCS and drug treatment immediately before transferring the plate to the microscope chamber. Imaging was performed on the Cell Observer Widefield Microscope (Zeiss) using a 20× objective at 37° C. with 10% CO2 in a XLmulti S1 full enclosure chamber. Cells were incubated in the XLmulti S1 full enclosure chamber for 2 hours prior to imaging. Three to four positions per well were captured with AxioCam (Zeiss) 506 Mono using ZEN software (Carl Zeiss) with images taken every 6 minutes for 60 hours. More than 15 cells were analysed at each position for each condition to confirm reproducibility.

[2] = test system: ATR-CHK1 pathway; assay: Western blot of pCHK1, pRPA32 and p21 after ZNF827 knockdown, topotecan and/or ATR inhibitor
Method: Protein was extracted from 10^6 cells per sample by vigorous pipetting and incubation at room temperature for 30 minutes in 100 μL of EDTA-free 4× LDS buffer (106 mM Tris-Cl, 141 mM Tris-Base, 40% Glycerol, 2% LDS, 0.075% SERVA Blue G50) supplemented with 2.5% Benzonase® nuclease 25 U/μL (Novagen, Merck Millipore) and 2% beta-mercaptoethanol (Sigma). Following protein extraction, all samples were denatured at 90° C. for 15 minutes before resolving on NuPAGE® Novex® 4-12% Bis-Tris Mini Gels (Invitrogen) with 1×10^5 cells (10 μL) loaded per lane in NuPAGE® MES SDS running buffer (Invitrogen) at 200 V for 50 minutes. Gels were transferred onto a PVDF membrane (Immobilon-P, Millipore) in transfer buffer (190 mM glycine, 25 mM Tris and 10% methanol) at 100 V for 60 minutes. Membranes were stained with Ponceau-S for 30 minutes, de-stained then blocked for 1 hour at room temperature in 5% skim milk dissolved in PBS with 0.1% Tween-20 (PBST) or TBS with 0.1% Tween-20 (TBST) for phosphorylated proteins. Membranes were cut into appropriate segments based on the size markers, with each segment incubated with antibodies for proteins of interest diluted in 0.5% skim milk in PBST/TBST or 5% BSA overnight at 4° C. (Refer to Table 4 for the list of antibodies). Blots were then washed for 3×5 minutes in PBST/TBST followed by incubation for 1 hour at room temperature with appropriate secondary antibodies (See Table 5) diluted 1:5000 in 0.5% skim milk or 5% BSA in PBST/TBST. Blots were washed for 3×5 minutes in PBST/TBST before incubation with SuperSignal West Pico Chemiluminescent Substrate (ThermoFisher Scientific) for 5 minutes at room temperature. Blots were then exposed to a Luminescent Image Analyser (LAS-4000, Fujifilm).

[3] = test system: HT1080 cells; assay: Sister chromatid exchange (SCE) assay in HT1080; conditions: 72 hr siRNA knockdown of ZNF827, topotecan 2 μg/mL 1 hr
Method: For the SCE assay, 20-25% confluent cells were cultured in fresh media supplemented with 7.5 μM […] (BrdU) and 2.5 μM BrdC (BrdU:BrdC 3:1 ratio; Sigma-Aldrich) for 32-48 hours depending on the mitotic index of the cell line. Cell cultures were treated with 100 ng/mL colcemid for the last 4 hours of incubation to accumulate mitotic cells. Cells were harvested by trypsinisation and centrifugation, and then incubated in hypotonic buffer for 10 minutes at 37° C. Swollen cells were fixed by gradually adding 1 mL of fresh ice-cold fixative (methanol/acetic acid 3:1), mixing by inversion and incubating on ice for 5 minutes. Cells were then collected by centrifugation at 1200 rpm for 8 minutes. 10 mL ice cold fixative was added to resuspend the cells followed by 5 minutes incubation on ice and centrifugation at 1200 rpm for 8 minutes. This fixing step was repeated another two times. Fixed cells were then resuspended in 500-1000 μL of ice-cold fixative, and dropped onto clean, dry microscope slides (HDS Surefrost, 50-100 μL cell solution per slide). To drop chromosomes, a clean dry slide was held over a 75° C. water bath, and the cell solution was dropped from a pipette onto the slide, which was quickly flipped and held close to the surface of the water bath for 5 seconds. […]

[4] = 72 hr siRNA knockdown in conjunction with topotecan 2 μg/mL 1 hr

Substance: siZNF827: Stealth RNAi siRNA ZNF827HSS135819 duplex oligoribonucleotides (Invitrogen), SEQ ID NO: 12 and 13 (chain 1 GGGCAGUCUUCUGGCUGAGAAAUCA; chain 2 UGAUUUCUCAGCCAGAAGACUGCCC; listed as RNA, further chemistry not given here)
- G1 duration / G1 arrest ([1]; 72 hr siRNA knockdown alone): strong G1 arrest comparable to topotecan treatment
- S/G2-M duration / G2/M arrest ([1]; 72 hr siRNA knockdown alone): no impact on G2/M by itself
- G1 duration / G1 arrest [1, 4]: further exacerbated G1 arrest
- S/G2-M duration / G2/M arrest [1, 4]: significant decrease in topotecan induced G2/M arrest
- phosphorylation of CHK1 S345 and RPA32 S33 compared with ATR inhibitors ([2]; ZNF827 knockdown versus ATR inhibitors VE-821 and AZ20): greater reduction in phosphorylation of CHK1 S345 and RPA32 S33 than ATR inhibitors
- phosphorylation of CHK1 S345 and RPA S33 ([2]; ZNF827 knockdown, topotecan treatment): substantially suppressed
- p21 level ([2]; unchallenged ZNF827-depleted cells, compared with topotecan-treated cells): upregulated
- sister chromatid exchanges (SCEs) [3]: suppression of SCEs
